Measurements as given in article PMC8460919, “Novel Angiotensin-I Converting Enzyme Inhibitory Peptides Isolated From Rice Wine Lees: Purification, Characterization, and Structure-Activity Relationship” (Frontiers in Nutrition, 2021).
pIC50: −log10 of the molar value. Read-outs that look alike come from different tables or passages of the source. One block for each molecule: values may come before it. Residues, ends and D or L forms follow the SMILES beside them.

How the values were obtained:
[1] = target: T1, Angiotensin-I converting enzyme (from rabbit lung) (Oryctolagus cuniculus, UniProt P12822); assay: ACE inhibitory activity (HHL substrate, hippuric acid by HPLC); format: biochemical; details: for inhibition at 1000 µg/mL: concentration 1 mg/ml
T1 construct: Angiotensin-I converting enzyme (from rabbit lung); purchased Sigma Co., USA; host or cells: rabbit lung (tissue-derived)
T1 sequence (P12822 34-1310): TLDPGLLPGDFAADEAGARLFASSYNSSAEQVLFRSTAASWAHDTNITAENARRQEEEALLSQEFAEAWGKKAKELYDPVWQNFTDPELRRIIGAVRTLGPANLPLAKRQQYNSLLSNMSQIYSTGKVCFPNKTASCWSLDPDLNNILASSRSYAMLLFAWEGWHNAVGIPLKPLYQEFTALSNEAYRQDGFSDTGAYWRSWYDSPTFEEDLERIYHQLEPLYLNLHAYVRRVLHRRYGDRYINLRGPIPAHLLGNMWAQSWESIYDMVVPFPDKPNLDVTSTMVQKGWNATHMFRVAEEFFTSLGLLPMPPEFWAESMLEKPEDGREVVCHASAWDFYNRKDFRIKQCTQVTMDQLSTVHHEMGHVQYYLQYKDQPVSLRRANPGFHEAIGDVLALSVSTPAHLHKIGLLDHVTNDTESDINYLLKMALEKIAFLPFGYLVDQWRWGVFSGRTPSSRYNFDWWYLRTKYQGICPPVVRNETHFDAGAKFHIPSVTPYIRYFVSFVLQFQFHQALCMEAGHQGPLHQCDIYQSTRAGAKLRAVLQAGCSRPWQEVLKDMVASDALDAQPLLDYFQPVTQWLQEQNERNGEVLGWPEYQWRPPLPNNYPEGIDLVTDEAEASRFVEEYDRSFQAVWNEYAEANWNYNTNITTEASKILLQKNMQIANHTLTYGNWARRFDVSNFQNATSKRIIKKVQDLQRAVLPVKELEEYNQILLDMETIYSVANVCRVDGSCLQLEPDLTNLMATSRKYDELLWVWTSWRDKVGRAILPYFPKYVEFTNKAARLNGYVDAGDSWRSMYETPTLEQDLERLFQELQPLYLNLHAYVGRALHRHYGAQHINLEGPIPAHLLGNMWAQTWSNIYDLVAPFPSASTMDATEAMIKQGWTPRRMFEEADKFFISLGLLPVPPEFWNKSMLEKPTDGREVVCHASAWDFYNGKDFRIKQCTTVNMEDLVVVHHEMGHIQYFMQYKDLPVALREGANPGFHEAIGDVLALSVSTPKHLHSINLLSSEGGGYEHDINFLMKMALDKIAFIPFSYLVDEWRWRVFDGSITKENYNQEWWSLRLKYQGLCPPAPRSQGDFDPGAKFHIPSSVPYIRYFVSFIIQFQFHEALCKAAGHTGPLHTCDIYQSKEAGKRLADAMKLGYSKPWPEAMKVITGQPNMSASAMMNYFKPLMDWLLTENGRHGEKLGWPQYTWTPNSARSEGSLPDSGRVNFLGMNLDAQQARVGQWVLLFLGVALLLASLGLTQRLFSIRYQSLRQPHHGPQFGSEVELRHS
Protocol: (§1) Rice wine lees was obtained from Guangdong Shunde Winery Co., Ltd., Shunde, China. Angiotensin-I converting enzyme (from rabbit lung) and N-Hippuryl-His-Leu hydrate (HHL) were purchased from Sigma Co., USA. Other chemicals and reagents were of analytical grade.
Angiotensin-I converting enzyme inhibitory activity was measured using the method described in Wu et al. ([29]) with some modifications. For each reaction, 10 μl of 0.25 U/ ml ACE solution (prepared in 0.01 M potassium phosphate buffer containing 0.5 M NaCl, pH 7.0) was mixed with 10 μl of inhibitor solution and incubated for 5 min at 37°C. Subsequently, 30 μl of HHL solution (5 mM in 0.1 M sodium borate buffer containing 0.3 M NaCl, pH 8.3) was added, followed by incubation at 37°C for 1 h. The reaction was terminated with the addition of 70 μl 1 M HCl before subsequent assays were performed. For the control group, 10 μl ACE solution and 80 μl 1 M HCl were simultaneously added to the mixture. A blank sample was prepared by replacing the inhibitor solution with 10 μl borate buffer. […] Angiotensin-I converting enzyme activity (%) was calculated according to the following equation:
ACE inhibition(%) = (A1-A2)-B/(A1-A2)×100%
Where A1, A2, and B are peak areas corresponding to Hippuric Acid in the control group, the blank and the sample, respectively.

ACE [2] = target: T2, ACE (Oryctolagus cuniculus, UniProt P12822); assay: Stability of peptides against ACE (pre-incubation with ACE, then ACEi assay); format: in vitro ADME, rabbit; details: for category of ACEi peptide from ACE pre-incubation test: true inhibitor / real substrate / pro-drug type
T2 construct: Angiotensin-I converting enzyme (from rabbit lung); purchased Sigma Co., USA; host or cells: rabbit lung (tissue-derived)
T2 sequence (P12822 34-1310): T1 sequence (P12822 34-1310)
Protocol: as §1
The stability of peptides against ACE was assayed according to the methods of Deng ([31]), with some modifications. For each reaction, 30 μl of peptides (2 mg/ml) was combined with 30 μl 0.25 U/ml ACE solution and incubated at 37°C for 30 min. Angiotensin-I converting enzyme was then inactivated by boiling the solution for 10 min. As described in section Measurement of ACEi Activity, 20 μl of each peptide sample was used for the detection of ACEi activity.

pepsin, chymotrypsin = assay: Stability of peptides during in vitro digestion by gastrointestinal enzymes (ACEi activity after digestion); format: in vitro ADME; details: in vitro digestion by pepsin and chymotrypsin
Protocol: Peptide stability was measured according to the methods described in Chen et al. ([30]) with some modifications. For this assay, 2% (w/w) pepsin was dissolved in a KCl–HCl buffer (0.1 mM) adjusted to pH 2.0, and 2% (w/w) chymotrypsin was dissolved in a KCl–NaOH (0.1 mM) buffer adjusted to pH 7.0. Peptides were dissolved at 1 mg/ml in pepsin or chymotrypsin solutions and incubated at 37°C for 4 h. Reactions were terminated by boiling for 15 min. After centrifugation at 4,000 rpm for 15 min, the supernatant was collected, pH was adjusted to 8.0, and samples were assayed for ACEi activity. The supernatant was also analyzed using the previously described RP-HPLC conditions to evaluate changes to the peptides after in vitro digestion.
Control groups were prepared by incubating inactivated pepsin and/or chymotrypsin (boiled for 15 min) with the sample peptides. After incubation, the mixture was processed and analyzed as described.

ACE [3] = target: T2, ACE; assay: Kinetic parameters of ACE inhibition (Lineweaver-Burk plots); format: biochemical, rabbit; details: for type of ACE inhibition: Lineweaver-Burk plots, peptides at 0.05 or 0.1 mg/ml
Protocol: Angiotensin-I converting enzyme inhibition of purified peptides was determined using Lineweaver–Burk plots according to reported methods ([32]). Samples were added at two fixed concentrations to each reaction mixture, and enzyme activity was measured for different concentrations of the substrate HHL according to the ACE inhibition assay. The curves were described by 1/area and 1/[S], and the kinetics of ACE inhibitors were estimated by comparing the resulting curves.
To clarify the kinetics of inhibition, Lineweaver–Burk plots were generated. Various concentrations of substrate were incubated with ACE solution in the absence or presence of RWLE peptides at 0.05 or 0.1 mg/ml.

[4] = peptide concentration 0.05 mg/ml
[5] = peptide concentration 0.1 mg/ml

pIC50 ([1]; synthetic peptides): 2.85
SMILES: CC[C@H](C)[C@H](NC(=O)[C@@H](N)CC(C)C)C(=O)N[C@H](C(=O)N1CCC[C@H]1C(=O)N[C@@H](CCC(N)=O)C(=O)N[C@@H](Cc1c[nH]cn1)C(=O)N[C@@H](Cc1c[nH]cn1)C(=O)O)[C@@H](C)CC [LIIPQHH] (H-LIIPQHH-OH; N-terminus and C-terminus assumed)

pIC50 ([1]; synthetic peptides): 2.69
SMILES: CC[C@H](C)[C@H](NC(=O)[C@@H](N)CC(C)C)C(=O)N[C@H](C(=O)N1CCC[C@H]1C(=O)O)[C@@H](C)CC [LIIP] (H-LIIP-OH; N-terminus and C-terminus assumed)

pIC50 ([1]; synthetic peptides): 2.91
SMILES: CC[C@H](C)[C@H](NC(=O)[C@@H](N)CC(C)C)C(=O)N[C@H](C(=O)N1CCC[C@H]1C(=O)N[C@@H](CCC(N)=O)C(=O)N[C@@H](Cc1c[nH]cn1)C(=O)N[C@@H](Cc1ccc(O)cc1)C(=O)O)[C@@H](C)CC [LIIPQHY] (H-LIIPQHY-OH; N-terminus and C-terminus assumed)

stability against ACE (ACE [2]): stable
IC50 (ACE [2]; control (co-incubation with inactive ACE), read-out: IC50 without pre-incubation (converted)): 51.3 µM
IC50 (ACE [2]; pre-incubation with ACE, 37°C 30 min, read-out: IC50 with pre-incubation (converted)): 70.7 µM
category of ACEi peptide from ACE pre-incubation test (ACE [2]): pro-drug ACE-inhibitors
stability against gastrointestinal enzymes (pepsin, chymotrypsin; listed as LIIPEH): stable
type of ACE inhibition (ACE [3]; listed as LIIPEH): mixed-type ACE inhibitors
Vm (ACE [3]; [4]): 0.099 ΔA/min
Vm (ACE [3]; [5]): 0.049 ΔA/min
inhibition at 1000 µg/mL [1]: 91.7%
pIC50 ([1]; products of each purification step (natural, from RWLE)): 4.08
pIC50 ([1]; synthetic peptides): 4.10
SMILES: CC[C@H](C)[C@H](NC(=O)[C@@H](N)CC(C)C)C(=O)N[C@H](C(=O)N1CCC[C@H]1C(=O)N[C@@H](CCC(=O)O)C(=O)N[C@@H](Cc1c[nH]cn1)C(=O)O)[C@@H](C)CC [H6, LIIPEH] (H-LIIPEH-OH; N-terminus and C-terminus assumed)
stability against gastrointestinal enzymes (pepsin, chymotrypsin): stable within the gastrointestinal environment
type of ACE inhibition (ACE [3]): non-competitive inhibitors (mostly mixed-type)

pIC50 ([1]; synthetic peptides): 2.62
SMILES: CC[C@H](C)[C@H](NC(=O)[C@@H](N)CC(C)C)C(=O)N[C@H](C(=O)N1CCC[C@H]1C(=O)N[C@@H](CCC(N)=O)C(=O)O)[C@@H](C)CC [LIIPQ] (H-LIIPQ-OH; N-terminus and C-terminus assumed)

pIC50 ([1]; synthetic peptides): 2.75
SMILES: CC[C@H](C)[C@H](N)C(=O)N[C@H](C(=O)N1CCC[C@H]1C(=O)N[C@@H](CCC(N)=O)C(=O)N[C@@H](Cc1c[nH]cn1)C(=O)O)[C@@H](C)CC [IIPQH] (H-IIPQH-OH; N-terminus and C-terminus assumed)

SMILES: CC[C@H](C)[C@H](NC(=O)[C@@H](N)CC(C)C)C(=O)N[C@H](C(=O)N1CCC[C@H]1C(=O)N[C@@H](CCC(N)=O)C(=O)N[C@@H](Cc1c[nH]cn1)C(=O)O)[C@@H](C)CC [H5, LIIPQH] (H-LIIPQH-OH; N-terminus and C-terminus assumed)
stability against ACE (ACE [2]): stable
category of ACEi peptide from ACE pre-incubation test (ACE [2]): pro-drug ACE-inhibitors
stability against gastrointestinal enzymes (pepsin, chymotrypsin): stable within the gastrointestinal environment
stability against gastrointestinal enzymes (pepsin, chymotrypsin; listed as LIIPQH): stable
type of ACE inhibition (ACE [3]): non-competitive inhibitors (mostly mixed-type)
type of ACE inhibition (ACE [3]; listed as LIIPQH): mixed-type ACE inhibitors
Vm (ACE [3]; [4]): 0.120 ΔA/min
Vm (ACE [3]; [5]): 0.070 ΔA/min
inhibition at 1000 µg/mL [1]: 89.3%

pIC50 ([1]; synthetic peptides): 3.00
SMILES: CC[C@H](C)[C@H](NC(=O)[C@H](CC(C)C)NC(=O)[C@@H](N)CC(C)C)C(=O)N[C@H](C(=O)N1CCC[C@H]1C(=O)N[C@@H](CCC(N)=O)C(=O)N[C@@H](Cc1c[nH]cn1)C(=O)O)[C@@H](C)CC [LLIIPQH] (H-LLIIPQH-OH; N-terminus and C-terminus assumed)
